{"source": "patent US10099993B2", "about": "“Metabotropic glutamate receptor positive allosteric modulators (PAMS) and uses thereof” (Sanford-Burnham Medical Research Institute, priority 2014, dated 2018)", "key": {"[1]": {"format": "in vitro ADME", "settings": "rat, 1 h"}, "[2]": {"settings": "rat, microsomes, 1 h"}, "[3]": {"settings": "100 μM, pH 7.2"}, "mGlu1": {"target": "mGlu1 (Rattus norvegicus (Rat), UniProt P23385)", "test": "mGlu1 calcium assay", "format": "cell-based", "settings": "full agonist concentration-response ± 10 μM compound"}, "mGlu4": {"target": "mGlu4 (Rattus norvegicus (Rat), UniProt P31423)", "sequence (P31423 33-912)": "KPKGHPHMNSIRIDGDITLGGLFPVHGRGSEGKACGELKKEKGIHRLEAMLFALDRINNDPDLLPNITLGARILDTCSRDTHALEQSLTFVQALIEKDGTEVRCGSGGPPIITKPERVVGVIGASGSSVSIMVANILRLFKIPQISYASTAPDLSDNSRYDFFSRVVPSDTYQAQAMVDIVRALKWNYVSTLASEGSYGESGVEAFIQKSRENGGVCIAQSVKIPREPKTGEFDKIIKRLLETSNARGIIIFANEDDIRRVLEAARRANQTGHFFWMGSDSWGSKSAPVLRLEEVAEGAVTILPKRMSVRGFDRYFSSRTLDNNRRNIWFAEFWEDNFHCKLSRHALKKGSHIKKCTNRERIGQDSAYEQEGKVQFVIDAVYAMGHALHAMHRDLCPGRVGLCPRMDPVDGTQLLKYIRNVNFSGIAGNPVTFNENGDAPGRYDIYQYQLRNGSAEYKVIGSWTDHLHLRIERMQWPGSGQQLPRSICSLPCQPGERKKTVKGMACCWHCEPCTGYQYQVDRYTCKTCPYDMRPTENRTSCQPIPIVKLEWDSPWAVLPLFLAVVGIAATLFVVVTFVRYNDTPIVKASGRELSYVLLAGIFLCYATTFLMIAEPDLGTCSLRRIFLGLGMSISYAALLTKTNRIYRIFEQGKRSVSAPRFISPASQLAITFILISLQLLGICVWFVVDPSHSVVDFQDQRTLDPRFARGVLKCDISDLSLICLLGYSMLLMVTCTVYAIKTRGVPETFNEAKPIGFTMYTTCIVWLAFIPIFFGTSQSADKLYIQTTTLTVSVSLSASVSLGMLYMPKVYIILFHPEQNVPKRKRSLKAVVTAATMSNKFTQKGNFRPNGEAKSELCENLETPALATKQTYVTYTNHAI", "test": "mGlu4 GIRK thallium flux assay", "format": "cell-based", "settings": "full agonist concentration-response ± 10 μM compound"}, "mGlu5": {"target": "mGlu5 (Rattus norvegicus (Rat), UniProt P31424)", "sequence (P31424 21-1203)": "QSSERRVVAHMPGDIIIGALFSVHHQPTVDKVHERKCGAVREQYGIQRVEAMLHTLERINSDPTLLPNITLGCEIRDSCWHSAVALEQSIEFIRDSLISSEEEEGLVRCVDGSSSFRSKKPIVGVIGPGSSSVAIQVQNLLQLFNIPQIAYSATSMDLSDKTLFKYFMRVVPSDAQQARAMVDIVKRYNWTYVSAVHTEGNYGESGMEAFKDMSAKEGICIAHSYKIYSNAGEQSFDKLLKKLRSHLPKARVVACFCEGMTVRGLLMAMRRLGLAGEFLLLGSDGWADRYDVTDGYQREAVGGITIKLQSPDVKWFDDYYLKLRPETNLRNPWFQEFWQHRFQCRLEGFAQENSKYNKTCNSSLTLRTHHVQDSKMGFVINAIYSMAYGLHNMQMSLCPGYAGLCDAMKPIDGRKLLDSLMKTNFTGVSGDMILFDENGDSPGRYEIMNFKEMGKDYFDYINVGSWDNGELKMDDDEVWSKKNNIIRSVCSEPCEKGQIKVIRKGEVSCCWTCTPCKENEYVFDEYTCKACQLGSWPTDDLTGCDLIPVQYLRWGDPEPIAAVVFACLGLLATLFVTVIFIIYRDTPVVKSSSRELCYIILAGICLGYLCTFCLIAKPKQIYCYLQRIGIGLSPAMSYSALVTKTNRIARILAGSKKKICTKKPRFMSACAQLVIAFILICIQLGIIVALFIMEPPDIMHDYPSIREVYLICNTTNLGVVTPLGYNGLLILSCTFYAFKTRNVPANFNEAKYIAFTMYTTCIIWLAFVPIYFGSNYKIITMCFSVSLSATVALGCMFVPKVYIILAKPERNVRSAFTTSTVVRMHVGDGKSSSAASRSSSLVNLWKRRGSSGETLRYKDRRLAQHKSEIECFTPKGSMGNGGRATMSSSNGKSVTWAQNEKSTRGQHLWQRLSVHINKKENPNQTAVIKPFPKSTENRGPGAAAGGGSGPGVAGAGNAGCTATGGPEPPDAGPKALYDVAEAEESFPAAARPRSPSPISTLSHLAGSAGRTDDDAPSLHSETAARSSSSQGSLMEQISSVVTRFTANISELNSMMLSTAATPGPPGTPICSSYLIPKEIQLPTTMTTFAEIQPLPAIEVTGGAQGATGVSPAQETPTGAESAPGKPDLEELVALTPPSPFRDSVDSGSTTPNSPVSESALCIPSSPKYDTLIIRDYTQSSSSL", "test": "mGlu5 calcium assay", "format": "cell-based", "settings": "full agonist concentration-response ± 10 μM compound"}, "mGlu6": {"target": "mGlu6 (Rattus norvegicus (Rat), UniProt P35349)", "test": "mGlu6 GIRK thallium flux assay", "format": "cell-based", "settings": "full agonist concentration-response ± 10 μM compound"}, "mGlu7": {"target": "mGlu7 (Rattus norvegicus (Rat), UniProt P35400)", "sequence (P35400 35-915)": "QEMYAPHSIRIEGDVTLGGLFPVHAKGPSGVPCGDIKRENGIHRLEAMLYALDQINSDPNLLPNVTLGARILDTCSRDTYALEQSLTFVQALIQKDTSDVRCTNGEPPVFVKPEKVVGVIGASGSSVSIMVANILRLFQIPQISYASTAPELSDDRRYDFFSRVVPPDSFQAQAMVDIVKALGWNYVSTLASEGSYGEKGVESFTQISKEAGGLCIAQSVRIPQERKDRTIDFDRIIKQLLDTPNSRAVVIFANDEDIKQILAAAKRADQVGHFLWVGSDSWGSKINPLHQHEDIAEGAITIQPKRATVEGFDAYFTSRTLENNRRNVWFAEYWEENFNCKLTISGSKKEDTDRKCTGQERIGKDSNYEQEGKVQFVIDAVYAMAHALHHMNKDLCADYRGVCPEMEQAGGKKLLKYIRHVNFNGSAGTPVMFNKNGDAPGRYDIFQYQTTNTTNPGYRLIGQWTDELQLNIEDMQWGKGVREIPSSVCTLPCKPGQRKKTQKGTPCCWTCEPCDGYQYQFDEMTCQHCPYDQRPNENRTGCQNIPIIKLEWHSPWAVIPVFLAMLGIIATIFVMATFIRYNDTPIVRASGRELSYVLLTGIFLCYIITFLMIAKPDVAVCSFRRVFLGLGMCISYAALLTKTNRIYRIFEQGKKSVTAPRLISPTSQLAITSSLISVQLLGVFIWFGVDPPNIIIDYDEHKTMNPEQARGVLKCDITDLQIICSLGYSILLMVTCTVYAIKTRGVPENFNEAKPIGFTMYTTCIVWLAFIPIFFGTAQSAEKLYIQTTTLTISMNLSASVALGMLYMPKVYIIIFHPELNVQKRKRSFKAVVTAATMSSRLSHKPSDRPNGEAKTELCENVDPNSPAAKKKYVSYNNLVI", "test": "mGlu7 GIRK thallium flux assay", "format": "cell-based", "settings": "full L-AP4 concentration-response ± 10 μM compound"}, "mGlu8": {"target": "mGlu8 (Rattus norvegicus (Rat), UniProt P70579)", "test": "mGlu8 GIRK thallium flux assay", "format": "cell-based", "settings": "full agonist concentration-response ± 10 μM compound"}, "forty-five CNS receptors": {"system": "forty-five CNS receptors", "test": "CNS receptors panel (NIMH PDSP), radioligand binding", "settings": "10 μM"}, "Adrenergic α2C": {"target": "Adrenergic α2C (Homo sapiens (Human), UniProt P18825)", "test": "PDSP radioligand binding", "settings": "displacement of radioligand"}, "Dopamine D2": {"target": "Dopamine D2 (Homo sapiens (Human), UniProt P14416)", "sequence (P14416 whole entry)": "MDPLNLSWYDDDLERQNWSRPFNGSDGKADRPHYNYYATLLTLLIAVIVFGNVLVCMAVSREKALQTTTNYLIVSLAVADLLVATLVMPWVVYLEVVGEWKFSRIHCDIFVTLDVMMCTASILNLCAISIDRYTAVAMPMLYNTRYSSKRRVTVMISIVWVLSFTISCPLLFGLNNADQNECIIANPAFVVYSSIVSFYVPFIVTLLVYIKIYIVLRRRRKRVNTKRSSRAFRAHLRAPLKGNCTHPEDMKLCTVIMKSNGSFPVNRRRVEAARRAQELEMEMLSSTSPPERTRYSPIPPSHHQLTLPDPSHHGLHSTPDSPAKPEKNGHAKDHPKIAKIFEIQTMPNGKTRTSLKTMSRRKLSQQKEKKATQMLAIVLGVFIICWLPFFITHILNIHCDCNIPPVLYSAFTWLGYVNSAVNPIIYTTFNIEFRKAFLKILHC", "test": "PDSP radioligand binding", "settings": "Dopamine D2, 10 μM, displacement of radioligand"}, "Dopamine D5": {"target": "Dopamine D5 (Homo sapiens (Human), UniProt P21918)", "test": "PDSP radioligand binding", "settings": "Dopamine D5, 10 μM, displacement of radioligand"}, "Histamine H1": {"target": "Histamine H1 (Homo sapiens (Human), UniProt P35367)", "test": "PDSP radioligand binding", "settings": "Histamine H1, 10 μM, displacement of radioligand"}, "Muscarinic M2": {"target": "Muscarinic M2 (Homo sapiens (Human), UniProt P08172)", "test": "PDSP radioligand binding", "settings": "Muscarinic M2, 10 μM, displacement of radioligand"}, "Muscarinic M4": {"target": "Muscarinic M4 (Homo sapiens (Human), UniProt P08173)", "test": "PDSP radioligand binding", "settings": "Muscarinic M4, 10 μM, displacement of radioligand"}, "[4]": {"target": "Peripheral benzodiazepine receptor ([3H]PK11195) (Rattus norvegicus (Rat), UniProt P16257)", "test": "PDSP radioligand binding"}, "[5]": {"target": "Serotonin (5-Hydroxytryptamine) 5-HT2A (Homo sapiens (Human), UniProt P28223)", "test": "PDSP radioligand binding", "settings": "displacement of radioligand"}, "[6]": {"target": "Transporter, Serotonin (5-Hydroxytryptamine) (SERT) (Homo sapiens (Human), UniProt P31645)", "test": "PDSP radioligand binding", "settings": "displacement of radioligand"}, "mGlu2": {"target": "mGlu2 (Rattus norvegicus (Rat), UniProt P31421)", "sequence (P31421 19-872)": "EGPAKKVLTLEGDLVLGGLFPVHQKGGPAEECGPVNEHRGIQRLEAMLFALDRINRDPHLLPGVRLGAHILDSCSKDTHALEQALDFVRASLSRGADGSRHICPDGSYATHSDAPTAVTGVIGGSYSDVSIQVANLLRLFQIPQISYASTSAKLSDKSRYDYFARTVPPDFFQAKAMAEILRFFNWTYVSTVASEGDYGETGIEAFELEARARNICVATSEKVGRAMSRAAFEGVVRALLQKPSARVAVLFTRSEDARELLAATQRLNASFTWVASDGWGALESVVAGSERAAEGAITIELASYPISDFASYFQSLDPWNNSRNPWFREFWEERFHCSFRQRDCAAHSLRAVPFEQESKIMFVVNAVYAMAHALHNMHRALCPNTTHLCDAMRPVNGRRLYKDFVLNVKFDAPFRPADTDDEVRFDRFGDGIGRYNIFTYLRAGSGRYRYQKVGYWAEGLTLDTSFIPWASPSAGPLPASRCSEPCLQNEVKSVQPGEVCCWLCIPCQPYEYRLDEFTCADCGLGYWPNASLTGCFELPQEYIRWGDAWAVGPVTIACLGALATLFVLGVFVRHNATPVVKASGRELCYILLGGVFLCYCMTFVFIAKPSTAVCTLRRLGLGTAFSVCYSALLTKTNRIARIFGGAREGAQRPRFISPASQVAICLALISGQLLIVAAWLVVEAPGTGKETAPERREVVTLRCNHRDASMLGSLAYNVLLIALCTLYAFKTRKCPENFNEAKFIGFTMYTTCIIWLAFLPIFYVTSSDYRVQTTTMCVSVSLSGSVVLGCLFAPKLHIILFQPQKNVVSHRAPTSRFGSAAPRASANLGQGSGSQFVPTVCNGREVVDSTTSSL", "test": "mGlu2 GIRK thallium flux assay;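 also: Cell-based assay, rate of fluorescence rise right after thallium plus agonist addition read on a kinetic imaging plate reader, normalized to vehicle and maximal agonist control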"}, "mGlu3": {"target": "mGlu3 (Rattus norvegicus (Rat), UniProt P31422)", "sequence (P31422 23-879)": "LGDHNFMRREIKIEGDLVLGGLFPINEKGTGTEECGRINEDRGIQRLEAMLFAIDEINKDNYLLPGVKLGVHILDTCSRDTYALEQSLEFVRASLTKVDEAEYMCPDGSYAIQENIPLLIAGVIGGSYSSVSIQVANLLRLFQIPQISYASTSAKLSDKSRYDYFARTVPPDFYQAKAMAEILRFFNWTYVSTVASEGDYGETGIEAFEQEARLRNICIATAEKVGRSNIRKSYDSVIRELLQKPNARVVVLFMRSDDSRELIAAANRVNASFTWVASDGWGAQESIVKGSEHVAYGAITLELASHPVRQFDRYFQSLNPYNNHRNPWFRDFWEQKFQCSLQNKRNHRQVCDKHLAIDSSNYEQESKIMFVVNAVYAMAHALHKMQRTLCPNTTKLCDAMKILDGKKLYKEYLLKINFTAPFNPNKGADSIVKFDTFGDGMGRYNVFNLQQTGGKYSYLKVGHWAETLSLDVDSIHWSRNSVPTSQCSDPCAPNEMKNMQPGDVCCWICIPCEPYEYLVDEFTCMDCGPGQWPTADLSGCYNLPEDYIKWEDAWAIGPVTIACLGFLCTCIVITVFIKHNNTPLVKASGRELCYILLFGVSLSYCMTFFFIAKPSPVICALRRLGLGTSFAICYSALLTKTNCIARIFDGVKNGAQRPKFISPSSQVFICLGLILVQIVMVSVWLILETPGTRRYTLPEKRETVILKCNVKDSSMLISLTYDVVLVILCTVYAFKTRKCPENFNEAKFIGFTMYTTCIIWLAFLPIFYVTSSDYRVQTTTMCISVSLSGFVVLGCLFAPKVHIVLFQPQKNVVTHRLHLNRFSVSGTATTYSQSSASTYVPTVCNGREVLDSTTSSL", "test": "mGlu3 GIRK thallium flux assay;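 also: kinetic fluorescence slope read shortly after thallium plus agonist addition, scaled between vehicle and maximal agonist control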", "settings": "for General activity at mGlu3: full agonist concentration-response ± 10 μM compound"}, "[7]": {"test": "In vivo PK in rats, i.p. administration", "settings": "rats, i.p., 10 mg/kg, Tmax 30 min"}, "[8]": {"settings": "rat, in vivo, ip, 10 mg/kg"}}, "data": [{"smiles": "COc1cc(C(=O)O)ccc1OCCCCOc1ccc(C(=O)CC2CCCC2)c(O)c1C", "note": "[Compound 45, 4-{4-[4-(2-Cyclopentylacetyl)-3-hydroxy-2-methylphenoxy]butoxy}-methoxybenzoic acid]", "values": [{"measurement": "Plasma Stability, percent remaining", "setting": "[1]", "result": 100, "unit": "%"}, {"measurement": "Microsomal stability, percent remaining", "setting": "[2]", "result": 31, "unit": "%"}, {"measurement": "PAMPA (LogPapp)", "setting": "[3]", "result": "−6.54"}]}, {"smiles": "COc1ccc(C(=O)O)cc1OCCCCOc1ccc(C(=O)CC(C)(C)C)c(O)c1C", "note": "[compound 72, 3-(4-(4-(3,3-Dimethylbutanoyl)-3-hydroxy-2-methylphenoxy)butoxy)-4-methoxybenzoic acid]", "values": [{"measurement": "General activity at mGlu1", "setting": "mGlu1", "result": "inactive^b"}, {"measurement": "General activity at mGlu4", "setting": "mGlu4", "result": "inactive^b"}, {"measurement": "General activity at mGlu5", "setting": "mGlu5", "result": "inactive^b"}, {"measurement": "General activity at mGlu6", "setting": "mGlu6", "result": "inactive^b"}, {"measurement": "General activity at mGlu7", "setting": "mGlu7", "result": "inactive^b"}, {"measurement": "General activity at mGlu8", "setting": "mGlu8", "result": "inactive^b"}, {"measurement": "binding activity at forty-five CNS receptors", "setting": "forty-five CNS receptors", "result": "no binding activity was detected"}, {"measurement": "inhibition at 10 µM", "setting": "Adrenergic α2C", "result": 0.6, "unit": "%"}, {"measurement": "inhibition at 10 µM", "setting": "Dopamine D2", "result": 1, "unit": "%"}, {"measurement": "inhibition at 10 µM", "setting": "Dopamine D5", "result": -0.9, "unit": "%"}, {"measurement": "inhibition at 10 µM", "setting": "Histamine H1", "result": 0.2, "unit": "%"}, {"measurement": "inhibition at 10 µM", "setting": "Muscarinic M2", "result": -1, "unit": "%"}, {"measurement": "inhibition at 10 µM", "setting": "Muscarinic M4", "result": -0.9, "unit": "%"}, {"measurement": "inhibition at 10 µM", "setting": "[4]", "result": 1, "unit": "%"}, {"measurement": "inhibition at 10 µM", "setting": "[5]", "result": -0.6, "unit": "%"}, {"measurement": "inhibition at 10 µM", "setting": "[6]", "result": 0.3, "unit": "%"}, {"measurement": "General activity at mGlu2", "setting": "mGlu2; full agonist concentration-response ± 10 μM compound", "result": "Ago-PAM"}, {"measurement": "Emin, minimal response of the concentration-response of agonist", "setting": "mGlu2; mGlu2, 10 μM compound", "result": "Emin = 72%"}, {"measurement": "General activity at mGlu3", "setting": "mGlu3", "result": "Ago-PAM"}, {"measurement": "Emin, minimal response of the concentration-response of agonist", "setting": "mGlu3; mGlu3, 10 μM compound", "result": "Emin = 54%"}, {"measurement": "Plasma, maximum concentration", "setting": "[7]", "result": "2.44 ± 2.19", "unit": "µM"}]}, {"smiles": "COc1cc(C(=O)O)ccc1OCCCCOc1ccc(C(=O)CC(C)(C)C)c(O)c1C", "note": "[compound 73]", "values": [{"measurement": "General activity at mGlu1", "setting": "mGlu1", "result": "inactive^b"}, {"measurement": "General activity at mGlu4", "setting": "mGlu4", "result": "inactive^b"}, {"measurement": "General activity at mGlu5", "setting": "mGlu5", "result": "inactive^b"}, {"measurement": "General activity at mGlu6", "setting": "mGlu6", "result": "PAM"}, {"measurement": "General activity at mGlu7", "setting": "mGlu7", "result": "inactive^b"}, {"measurement": "General activity at mGlu8", "setting": "mGlu8", "result": "inactive^b"}, {"measurement": "PAMPA (LogPapp)", "setting": "[3]", "result": "−5.46"}, {"measurement": "Brain: Plasma", "setting": "[8]", "result": "0.02 ± 0.01"}, {"measurement": "General activity at mGlu3", "setting": "mGlu3", "result": "Ago-PAM"}]}]}
